# Assay results: ChEMBL document CHEMBL1140310, “[Nalpha-benzylTyr1,cyclo(D-Asp5,Dap8)]- dynorphin A-(1-11)NH2 cyclized in the "address" domain is a novel kappa-opioid receptor antagonist” (J Med Chem, 2005)
# Key:
# [1] = Inhibition of [3H]diprenorphine binding to kappa opioid receptor expressed in CHO cells; format: cell-based
# [2] = Inhibition of [3H]DAMGO ([D-Ala2,NMePhe4,glyol]-enkephalin) binding to mu opioid receptor expressed in CHO cells; format: cell-based
# [3] = Relative binding affinity for kappa and mu opioid receptors
# [4] = Relative binding affinity for kappa and delta opioid receptors
# [5] = Inhibition of [3H]-DPDPE (cyclo[D-Pen2,D-Pen5]enkep halin) binding to delta opioid receptor expressed in CHO cells; format: cell-based
Structure (SMILES),Ki [1] [nM],Ki [2] [nM],Ratio [3],Ratio [4],Ki [5] [nM]
CC(=O)NC[C@H](NC(=O)[C@H](CCCNC(=N)N)NC(=O)[C@H](CCCNC(=N)N)NC(=O)[C@@H](CC(N)=O)NC(=O)[C@H](Cc1ccccc1)NC(=O)CNC(=O)CNC(=O)[C@H](Cc1ccc(O)cc1)NCc1ccccc1)C(=O)N[C@@H](CCCNC(=N)N)C(=O)N1CCC[C@H]1C(=O)N[C@@H](CCCCN)C(N)=O,66.9,1660,0.04,0.007,> 10000
CC[C@H](C)[C@H](NC(=O)[C@H](CCCN=C(N)N)NC(=O)[C@H](CCCN=C(N)N)NC(=O)[C@H](CC(C)C)NC(=O)[C@H](Cc1ccccc1)NC(=O)CNC(=O)CNC(=O)[C@@H](N)Cc1ccc(O)cc1)C(=O)N[C@@H](CCCN=C(N)N)C(=O)N1CCC[C@H]1C(=O)N[C@@H](CCCCN)C(N)=O,0.57,,0.33,0.09,6.18
NCCCC[C@H](NC(=O)[C@@H]1CCCN1C(=O)[C@H](CCCN=C(N)N)NC(=O)[C@@H]1CNC(=O)C[C@H](NC(=O)[C@H](Cc2ccccc2)NC(=O)CNC(=O)CNC(=O)[C@H](Cc2ccc(O)cc2)NCc2ccccc2)C(=O)N[C@H](CCCN=C(N)N)C(=O)N[C@@H](CCCN=C(N)N)C(=O)N1)C(N)=O,30.3,5880,0.005,0.003,> 10000
